In patent publication US6603057B1, “Heterogenous and homogeneous mouse variants lacking sno gene” (Japan Science and Technology Corporation, priority 1999, dated 2003):

Tested on: wild type and sno^+/− mice
Test: Tumor susceptibility: survival after weekly carcinogen DMBA treatment
Assay type: in vivo, mouse
Conditions: DMBA weekly to dorsal surface, observation period of 80 days
Protocol: In the next experiment, in order to compare the tumor susceptibility of wild type and sno^+/− mice, the carcinogen 9,10-dimethyl-1,2-benzanthracene (DMBA) was administered every week. […] The major tumor type observed was malignant lymphomas, and fibromas were also found at a lower frequency. Lymphomas in sno^+/− mice were aggressive metastatic malignancies, and generated tumors in the thymus glands [refer to FIGS. 4(b) and (c)]. The fact that these originated from T-cells is due to the tumor cells homogeneously expressing the TCRαβ markers, but not the IgM marker [refer to FIGS. 4(d) and (e)].
DMBA treatments were initiated from the beginning at postnatal day 2-5 and continuing weekly thereafter by administering 50 μl of a solution containing DMBA 1.25 mg per ml acetone to the dorsal surface. Mice were monitored regularly and killed when overall health condition was deteriorated.
At first, 8-10 mice in each cohort were used for collecting histopathological informations, subsequently, the site of tumor and the site of metastatic organ were detected and specified by detailed pathological analysis.

Cc1c2ccccc2c(C)c2c1ccc1ccccc12 [DMBA, 9,10-dimethyl-1,2-benzanthracene]
survived this treatment (sno^+/− female mice (n=20)): 30%
survived this treatment (sno^+/− male mice (n=20)): 50%
survival under this treatment (wild-type mice (n=40)): most of the wild-type mice (n=40) survived
